Reference: US8575213B2, “Pyrethrinoid-type esters as pesticides” (Sumitomo Chemical Company, Limited, priority 2010, dated 2013)

Tested on: houseflies
Assay: Knockdown test on houseflies, oil solution sprayed in a 70 cm cubic chamber
Format: in vivo
Conditions: 0.00625% (w/v) oil solution, 0.7 ml sprayed in cubic chamber of 70 cm side length, ten houseflies (5 of each male and female), repeated twice
Procedure: Each of the present invention compounds (1) and (2) (0.00625 parts) produced in the aforementioned Production
Examples was dissolved in 10 parts of dichloromethane and the resulting solution was mixed with 89.99375 parts of an isoparafin solvent (Isper M, registered trademark of Exxon Chemical Company) to prepare a 0.00625% (w/v) oil solution.
Ten houseflies (5 of each male and female) were released in a cubic chamber having a side length of 70 cm and then 0.7 ml of the present invention compound (1) was sprayed through a small window at an inlet of the chamber using a spray gun (spray pressure: 0.9 kg/cm^2). The number of knockdowned houseflies was counted after a given time had passed since completion of spraying, and a knockdown rate (KD rate) was determined (repeated twice). The test was carried out in the same manner, except that the present invention compound (2) was used in place of the present invention compound (1), and then a knockdown rate was determined after a given time (repeated twice).

SMILES	Knockdown rate (%) after 7 minutes
C/C=C/C(C#N)=C/[C@@H]1[C@@H](C(=O)OCc2c(F)c(F)c(COC)c(F)c2F)C1(C)C [Present invention compound (2), 4-methoxymethyl-2,3,5,6-tetrafluorobenzyl=(1R)-trans-3-[(1Z,3E)-2-cyano-1,3-pentadienyl]-2,2-dimethylcyclopropane carboxylate]	100%
C=C/C(C#N)=C/[C@@H]1[C@@H](C(=O)OCc2c(F)c(F)c(COC)c(F)c2F)C1(C)C [Present invention Compound (1), 4-methoxymethyl-2,3,5,6-tetrafluorobenzyl=(1R)-trans-3-[(1Z)-2-cyano-1,3-butadienyl]-2,2-dimethylcyclopropane carboxylate]	100%
